We go through 20 compounds from ChEMBL document CHEMBL5291721, “A preclinical secondary pharmacology resource illuminates target-adverse drug reaction associations of marketed drugs” (Nat Commun, 2023).

SMILES strings stand for the structures.

In assay [1] the target is Acetylcholinesterase (Homo sapiens, UniProt P22303). The format is functional.
Assay [2] concerns the target T1, Adenosine receptor A3 (Homo sapiens, UniProt P0DMS8).
T1 sequence (P0DMS8 whole entry): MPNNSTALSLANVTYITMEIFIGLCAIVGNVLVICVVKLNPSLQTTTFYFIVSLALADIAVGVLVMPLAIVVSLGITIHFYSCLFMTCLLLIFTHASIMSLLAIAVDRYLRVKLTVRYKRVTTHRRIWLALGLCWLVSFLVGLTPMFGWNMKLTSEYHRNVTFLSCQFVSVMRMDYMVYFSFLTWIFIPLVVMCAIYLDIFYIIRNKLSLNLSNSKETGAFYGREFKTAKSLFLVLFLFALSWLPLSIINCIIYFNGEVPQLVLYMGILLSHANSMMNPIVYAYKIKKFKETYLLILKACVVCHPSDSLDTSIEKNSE

The target in assay [3] is T2, Alpha-1A adrenergic receptor (Homo sapiens, UniProt P35348).
T2 sequence (P35348 whole entry): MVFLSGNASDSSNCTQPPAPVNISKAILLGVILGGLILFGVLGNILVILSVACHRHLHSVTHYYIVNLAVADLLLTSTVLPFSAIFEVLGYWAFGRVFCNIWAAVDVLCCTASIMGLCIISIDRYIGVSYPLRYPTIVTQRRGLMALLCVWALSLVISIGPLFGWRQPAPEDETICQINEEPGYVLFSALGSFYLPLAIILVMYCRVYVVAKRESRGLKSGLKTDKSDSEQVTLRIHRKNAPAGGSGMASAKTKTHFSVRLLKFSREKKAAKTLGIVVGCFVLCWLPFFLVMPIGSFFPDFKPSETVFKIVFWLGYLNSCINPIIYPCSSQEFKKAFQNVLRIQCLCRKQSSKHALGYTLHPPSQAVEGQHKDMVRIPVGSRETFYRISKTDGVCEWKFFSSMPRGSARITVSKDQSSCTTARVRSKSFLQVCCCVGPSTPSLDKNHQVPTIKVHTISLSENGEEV
Format: functional, cell-based.

In assay [4] the target is D(1A) dopamine receptor (Homo sapiens, UniProt P21728).
Assay [5] has as its target T3, 5-hydroxytryptamine receptor 1A (Homo sapiens, UniProt P08908).
T3 sequence (P08908 whole entry): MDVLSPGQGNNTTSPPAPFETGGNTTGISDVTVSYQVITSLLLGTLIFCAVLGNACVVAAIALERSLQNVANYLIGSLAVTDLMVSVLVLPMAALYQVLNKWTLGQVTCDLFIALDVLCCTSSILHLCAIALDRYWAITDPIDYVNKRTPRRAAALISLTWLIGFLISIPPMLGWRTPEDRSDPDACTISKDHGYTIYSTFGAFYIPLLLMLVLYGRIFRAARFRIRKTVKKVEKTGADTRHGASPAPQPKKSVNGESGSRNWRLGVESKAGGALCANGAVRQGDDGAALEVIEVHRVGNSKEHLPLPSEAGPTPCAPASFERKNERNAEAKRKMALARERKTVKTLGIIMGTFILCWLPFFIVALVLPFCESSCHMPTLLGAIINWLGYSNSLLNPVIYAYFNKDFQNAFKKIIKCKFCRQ

The target in assay [6] is 3',5'-cyclic-AMP phosphodiesterase 4A (Homo sapiens, UniProt P27815). The format is functional.
For assay [7], the target named is Prostaglandin G/H synthase 1 (Homo sapiens, UniProt P23219). The format is functional.
Also: assay procedure not described here.

Chain of 3',5'-cyclic-AMP phosphodiesterase 4A (P27815 whole entry): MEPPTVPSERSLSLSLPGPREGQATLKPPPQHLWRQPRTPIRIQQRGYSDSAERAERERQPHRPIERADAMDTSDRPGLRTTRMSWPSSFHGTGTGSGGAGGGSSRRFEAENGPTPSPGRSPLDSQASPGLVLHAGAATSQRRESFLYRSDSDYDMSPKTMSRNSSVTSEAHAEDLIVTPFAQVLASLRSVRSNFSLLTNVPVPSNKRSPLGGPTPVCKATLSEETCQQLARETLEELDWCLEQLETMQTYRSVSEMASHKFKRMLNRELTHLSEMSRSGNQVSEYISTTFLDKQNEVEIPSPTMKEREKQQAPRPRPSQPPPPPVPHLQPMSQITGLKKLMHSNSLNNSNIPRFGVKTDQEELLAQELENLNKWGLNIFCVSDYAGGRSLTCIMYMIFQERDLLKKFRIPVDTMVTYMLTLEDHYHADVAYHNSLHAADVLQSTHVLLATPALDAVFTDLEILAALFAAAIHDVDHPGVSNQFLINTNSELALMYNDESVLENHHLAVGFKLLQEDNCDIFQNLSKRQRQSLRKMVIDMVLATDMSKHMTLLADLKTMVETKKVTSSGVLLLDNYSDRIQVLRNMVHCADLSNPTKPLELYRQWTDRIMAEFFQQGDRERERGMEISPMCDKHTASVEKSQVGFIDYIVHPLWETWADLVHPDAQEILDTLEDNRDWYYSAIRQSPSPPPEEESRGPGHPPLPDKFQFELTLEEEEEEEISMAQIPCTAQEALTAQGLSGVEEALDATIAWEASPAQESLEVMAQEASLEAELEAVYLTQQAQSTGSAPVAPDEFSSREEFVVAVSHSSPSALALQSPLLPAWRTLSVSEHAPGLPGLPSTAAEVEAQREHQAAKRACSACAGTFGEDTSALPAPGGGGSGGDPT
Chain of Acetylcholinesterase (P22303 whole entry): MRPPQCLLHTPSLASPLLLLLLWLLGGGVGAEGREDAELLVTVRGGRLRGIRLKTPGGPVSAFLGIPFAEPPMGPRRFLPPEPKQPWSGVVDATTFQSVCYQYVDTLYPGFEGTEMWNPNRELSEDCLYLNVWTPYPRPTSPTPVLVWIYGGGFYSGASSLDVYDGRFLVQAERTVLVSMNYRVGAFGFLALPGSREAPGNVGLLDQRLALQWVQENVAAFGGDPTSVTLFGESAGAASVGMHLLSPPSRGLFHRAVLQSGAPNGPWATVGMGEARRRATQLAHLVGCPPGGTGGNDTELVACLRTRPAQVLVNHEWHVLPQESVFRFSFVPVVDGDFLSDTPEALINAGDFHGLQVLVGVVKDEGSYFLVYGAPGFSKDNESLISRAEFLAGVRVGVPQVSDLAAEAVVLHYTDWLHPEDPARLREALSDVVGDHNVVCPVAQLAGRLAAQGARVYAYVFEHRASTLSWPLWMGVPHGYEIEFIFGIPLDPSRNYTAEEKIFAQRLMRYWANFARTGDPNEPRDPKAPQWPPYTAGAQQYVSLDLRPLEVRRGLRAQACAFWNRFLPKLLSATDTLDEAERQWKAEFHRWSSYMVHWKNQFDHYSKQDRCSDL
Chain of Prostaglandin G/H synthase 1 (P23219 whole entry): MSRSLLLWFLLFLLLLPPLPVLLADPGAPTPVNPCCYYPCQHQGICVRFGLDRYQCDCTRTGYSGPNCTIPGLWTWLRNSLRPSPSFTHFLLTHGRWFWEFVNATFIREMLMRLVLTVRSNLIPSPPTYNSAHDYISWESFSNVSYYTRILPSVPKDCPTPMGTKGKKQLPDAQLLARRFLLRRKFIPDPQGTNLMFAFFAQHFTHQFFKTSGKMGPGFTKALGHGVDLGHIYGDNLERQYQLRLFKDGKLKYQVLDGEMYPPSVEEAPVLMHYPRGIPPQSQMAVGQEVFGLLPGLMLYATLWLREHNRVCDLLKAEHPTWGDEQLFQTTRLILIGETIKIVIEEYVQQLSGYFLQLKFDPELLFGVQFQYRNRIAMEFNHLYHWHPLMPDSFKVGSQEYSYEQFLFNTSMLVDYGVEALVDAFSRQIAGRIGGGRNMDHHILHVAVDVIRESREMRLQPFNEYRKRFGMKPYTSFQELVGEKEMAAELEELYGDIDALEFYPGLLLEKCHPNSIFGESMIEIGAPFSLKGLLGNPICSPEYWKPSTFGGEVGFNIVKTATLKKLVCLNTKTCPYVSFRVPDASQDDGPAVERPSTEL
Chain of D(1A) dopamine receptor (P21728 whole entry): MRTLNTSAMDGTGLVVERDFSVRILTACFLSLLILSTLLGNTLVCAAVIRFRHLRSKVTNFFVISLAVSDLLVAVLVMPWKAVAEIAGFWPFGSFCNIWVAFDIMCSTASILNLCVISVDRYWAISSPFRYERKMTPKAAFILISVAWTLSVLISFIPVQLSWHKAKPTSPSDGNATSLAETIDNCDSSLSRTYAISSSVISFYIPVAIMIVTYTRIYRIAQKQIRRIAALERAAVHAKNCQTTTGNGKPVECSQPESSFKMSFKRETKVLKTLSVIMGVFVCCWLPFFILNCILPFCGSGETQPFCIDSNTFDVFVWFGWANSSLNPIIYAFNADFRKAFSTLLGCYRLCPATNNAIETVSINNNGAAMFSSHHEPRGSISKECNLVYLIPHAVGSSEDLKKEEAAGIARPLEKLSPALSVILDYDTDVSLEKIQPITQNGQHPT

As to `CC(C)OC(=O)[C@H](C)N[P@](=O)(OC[C@H]1O[C@@H](n2ccc(=O)[nH]c2=O)[C@](C)(F)[C@@H]1O)Oc1ccccc1` [SOFOSBUVIR], the AC50 in assay [1], in assay [2], in assay [3], in assay [4], in assay [5] and in assay [6] was > 30 µM in each case. For the same compound, the concentration at half-maximal activity (AC50) in assay [7] was > 30 µM.

With `CC(N/C(=N\C#N)Nc1ccncc1)C(C)(C)C` (stereo not given) [PINACIDIL ANHYDROUS], the AC50 in assay [1], in assay [2], in assay [3], in assay [4], in assay [5] and in assay [6] was > 30 µM each time. Moreover, the AC50 in assay [7] is > 30 µM.

With `CCOC(=O)c1ccc(O)cc1` [ETHYLPARABEN], the AC50 in assay [1], in assay [2], in assay [3], in assay [4], in assay [5] and in assay [6] was > 30 µM in each case. Also, in assay [7], the AC50 is > 1 µM.

In the case of `CCO/N=C(\C(=O)N[C@@H]1C(=O)N2C(C(=O)[O-])=C(Sc3nc(-c4cc[n+](C)cc4)cs3)CS[C@H]12)c1nsc(N)n1` [CEFTAROLINE], the AC50 in assay [1], in assay [2], in assay [3], in assay [4], in assay [5] and in assay [6] was > 30 µM in each case. The AC50 in assay [7] was > 30 µM.

As to `Cc1ccc(O)c2ncccc12` [TILIQUINOL], the AC50 in assay [1], in assay [2], in assay [3], in assay [4], in assay [5] and in assay [6] was > 30 µM in each case. Also, the AC50 in assay [7] is > 30 µM.

`C#C[C@]1(O)CC[C@H]2[C@@H]3CCC4=CC(=O)CC[C@@H]4[C@H]3CC[C@@]21CC` [LEVONORGESTREL]: the AC50 in assay [1], in assay [2], in assay [3], in assay [4], in assay [5] and in assay [6] was > 30 µM in each case. Moreover, the AC50 in assay [7] is > 30 µM.

For `CC(=O)Oc1c(C)cc(OCC(O)CNC(C)C)c(C)c1C` (stereo not given) [METIPRANOLOL], the AC50 in assay [1], in assay [2], in assay [3], in assay [4], in assay [5] and in assay [6] was > 30 µM in each case. Besides, the AC50 in assay [7] was > 30 µM.

`Sc1ncnc2nc[nH]c12` [MERCAPTOPURINE ANHYDROUS]: the concentration at half-maximal activity (AC50) in assay [1], in assay [2], in assay [3], in assay [4], in assay [5] and in assay [6] was > 30 µM throughout. For the same compound, the concentration at half-maximal activity (AC50) in assay [7] was > 30 µM.

For `CC(O)CO` (stereo not given) [PROPYLENE GLYCOL], the AC50 in assay [1], in assay [2], in assay [3], in assay [4], in assay [5] and in assay [6] was > 30 µM each time. The AC50 in assay [7] was > 30 µM.

`Cc1c(-c2ccccc2)oc2c(C(=O)OCCN3CCCCC3)cccc2c1=O` [FLAVOXATE]: the AC50 in assay [1] was 17.6 µM; in assay [2] it was 5.29 µM; in assay [3] it was > 30 µM; in assay [4], > 30 µM; in assay [5] it was 3.11 µM; in assay [6], 6.12 µM. Further, in assay [7], the half-maximal activity concentration (AC50) was > 30 µM.

Regarding `C[N+]1(C)[C@@H]2C[C@@H](OC(=O)[C@H](CO)c3ccccc3)C[C@H]1[C@@H]1O[C@@H]12` [METHSCOPOLAMINE], the AC50 in assay [1], in assay [2], in assay [3], in assay [4], in assay [5] and in assay [6] was > 30 µM each time. Moreover, the AC50 in assay [7] was > 30 µM.

As to `C(=N\NC1=NCCN1)/c1c2ccccc2c(/C=N/NC2=NCCN2)c2ccccc12` [BISANTRENE], the AC50 in assay [1] was 3.88 µM; in assay [2] it was 2.01 µM; in assay [3], > 30 µM; in assay [4], 5.24 µM; in assay [5] it was 1.65 µM; in assay [6] it was > 30 µM. In addition, the AC50 in assay [7] is > 30 µM.

Regarding `CN1CCCC(CN2c3ccccc3Sc3ccccc32)C1` (stereo not given) [MEPAZINE], the AC50 was > 30 µM in assay [1]; > 30 µM in assay [2]; > 30 µM in assay [3]; 9.78 µM in assay [4]; > 30 µM in assay [5]; > 30 µM in assay [6]. Further, the concentration at half-maximal activity (AC50) in assay [7] worked out at 21.6 µM.

As to `OC[C@@H](O)[C@@H](O)[C@H](O)[C@H](O)CO` [MANNITOL], the AC50 in assay [1], in assay [2], in assay [3], in assay [4], in assay [5] and in assay [6] was > 30 µM throughout. For the same compound, in assay [7], the AC50 was > 30 µM.

For `CCOC(=O)N[C@@H]1CC[C@@H]2[C@@H](C1)C[C@H]1C(=O)O[C@H](C)[C@H]1[C@H]2/C=C/c1ccc(-c2cccc(F)c2)cn1` [VORAPAXAR], the AC50 in assay [1] was > 30 µM; in assay [2], 2.43 µM; in assay [3], > 30 µM; in assay [4] it was > 30 µM; in assay [5], > 30 µM; in assay [6], > 30 µM. Further, the AC50 in assay [7] was > 30 µM.

On to `CC1(C)O[C@@H]2C[C@H]3[C@@H]4C[C@H](F)C5=CC(=O)CC[C@]5(C)[C@H]4[C@@H](O)C[C@]3(C)[C@]2(C(=O)CO)O1` [FLURANDRENOLIDE], for which the AC50 in assay [1], in assay [2], in assay [3], in assay [4], in assay [5] and in assay [6] was > 30 µM in each case. In addition, in assay [7], the AC50 was > 30 µM.

Turning to `CC(=O)OC[C@H]1O[C@@H](n2ccc(=O)[nH]c2=O)[C@H](OC(C)=O)[C@@H]1OC(C)=O` [URIDINE TRIACETATE], the AC50 in assay [1], in assay [2], in assay [3], in assay [4], in assay [5] and in assay [6] was > 30 µM throughout. Also, in assay [7], the AC50 is > 30 µM.

`O=C1[C@H](CC[C@H](O)c2ccc(F)cc2)[C@@H](c2ccc(O)cc2)N1c1ccc(F)cc1` [EZETIMIBE]: the AC50 was > 30 µM in assay [1]; 6.34 µM in assay [2]; 9.94 µM in assay [3]; 29.4 µM in assay [4]; > 30 µM in assay [5]; > 30 µM in assay [6]. Also, the AC50 in assay [7] was > 30 µM.

With `C[N+](C)(C)CCCCCCCCCC[N+](C)(C)C` [DECAMETHONIUM], the AC50 is 9.15 µM in assay [1]; > 30 µM in assay [2]; > 30 µM in assay [3]; > 30 µM in assay [4]; > 30 µM in assay [5]; > 30 µM in assay [6]. Besides, in assay [7], the AC50 was > 30 µM.

Turning to `O=C(COc1ccc(Cl)cc1)N1CCN(Cc2ccc3c(c2)OCO3)CC1` [FIPEXIDE], the AC50 in assay [1], in assay [2], in assay [3], in assay [4], in assay [5] and in assay [6] was > 30 µM each time. Besides, the AC50 in assay [7] is > 30 µM.

What is called AC50 is the midpoint of the concentration-response curve, whichever way the signal moves. Low values mean activity at low concentration, high ones activity only at high concentration.
